The values below come from patent publication US6689788B1, “Method and composition for treatment of inflammatory bowel disease” (University of Florida, priority 2000, dated 2004).

In data set [1] the test system is acetic acid-induced colitis. The experiment in a line: acetic acid-induced colitis in the rat, test drug i.r. 30 minutes before acetic acid. Type of data set: in vivo. The following applies: for damage in the colons: 650 μmol/kg i.r. 30 minutes before acetic acid, colons assessed 24 hours later. From the text:
A typical model of IBD in acetic acid-induced colitis in the rat has been described by Krawisz et al in Amer. J. Proc. Gastro. Col. Rec. Surg., Vol. 31, pages 11-18 (1980); and by Sharon et al in Gastroenterology, Vol. 88, pages 55-63 (1985) and Vol. 86, pages 453-460 (1984). Acetic acid-induced colitis is characterized by the movement of inflammatory cells into the colon, with the number of such cells in the mucosa being measured by the activity of myeloperoxidase, a marker enzyme for these cells. Positive desirable activity is indicated by a reduction in the high levels of myeloperoxidase caused by acetic acid. Typically, Sprague-Dawley rats from Charles River Laboratories, Portage, Mich. (either sex, weight approximately 250 g) are dosed with test compounds and controls. Thereafter, the rats are given an intracolonic enema of acetic acid which produces a severe inflammatory response in the colon of a healthy rat characterized by rectal bleeding, diarrhea, epithelial erosions and destructions of crypts and gland cells. Twenty-four hours later, the test and control animals are sacrificed and the distal ten centimeters of the colons are removed and opened longitudinally. The tissue lesions contained within the removed, opened section of the colons are scored. After the systematic evaluation of the impact of various fasting times, use of vehicles, the time interval between pre-treatment and administration of the acetic acid and altering the concentration of acetic acid, the final protocol for the experiments is to fast the rats for 30 hours in hanging wire cages, anesthetize the animals with sodium pentobarbital, administer the test drug 1 cc intrarectally (i.r.) either as a suspension or a solution in water, and to give the acetic acid (7.5% in water) 1 cc i.r. 30 minutes later. The rats are sacrificed 24 hours later and the colons are removed and assessed for damage.

Data set [2] has as its system acetic acid-induced colitis. Kind of data set: reversal studies, compound given 30 minutes after 2.5% acetic acid. The format is in vivo, rat. The text has this: (§1) The lesions were apparently resolving and with some lamina proprial fibrosis and considerable hyperplasia of submucosal lymphoid tissue. […] This is a highly desirable property, as patients suffering from IBD are already anemic due to disease-related blood loss.

Another data set has as its system mice. The following applies: mouse, in vivo. From the text: DFO and DFT given i.r. at a dose of 650 μmol/kg were ineffective. […] See, for example, FIGS. 7 and 8.
The next data set relates to iron. The experiment in a line: iron chelator activity when given to rats. The format is in vivo.
From the text: as §1

Data set [3] can be described thus: iron binding in a test tube. Type of data set: physicochemical.
From the text: as §1

“Also recorded” adds a separate entry of the source.

Turning to `C[C@]1(C(=O)O)CSC(c2ncccc2O)=N1` [DFT, reference compound], the “damage in the colons” value in data set [1] is “ineffective”.

Regarding `CC(=O)N(O)CCCCCNC(=O)CCC(=O)N(O)CCCCCNC(=O)CCC(=O)N(O)CCCCCN` [DFO, reference compound], in data set [1], the “damage in the colons” value was “ineffective”.

As for `Cc1ccc(O)c(C2=NC(C(=O)O)CC2)c1` (stereo not shown) [2H-pyrrolecarboxylic acid, 3,4-dihydro-5-(2-hydroxy-5-methylphenyl)-2H-pyrrole-2-carboxylic acid], the “dose response study, prevention of severe lesions” value in data set [1] (162.5 μmol/kg (41.5 mg/kg) at 1 cc i.r.) was “severe lesions being prevented in a majority of rats”. Also, the “damage in the colons” value in data set [1] is “very little damage; also recorded: considerably less damage”. Moreover, in data set [1] (compound 650 μmol/kg vs. 5-ASA/Rowasa 1742 μmol/kg), the “head-to-head comparison with 5-ASA or its commercially available formulation (Rowasa)” value is “far superior”. In addition, the “lesions compared with the control group” value in data set [2] was “less severe and less active”. Further, the acute toxicity entry in the data set with mice is “virtually non-toxic”. The “activity as an iron chelator” value in the data set with iron (orally) and with iron (subcutaneously (s.c.)) was “inactive” in each case. The iron binding entry in data set [3] is reported as “binds iron remarkably well”.
